Columns and labels:
[1] = tested on: Calu-3; test: relative viability EC50 (midpoint between 100% and the lowest measured viability); higher = less toxic; settings: 72 h
[2] = tested on: HepG2; test: as above; settings: 72 h
[3] = tested on: Vero E6; test: as above; settings: 72 h
[4] = tested on: A549-ACE2; test: drug-induced phospholipidosis relative to tamoxifen; higher = more phospholipidosis
[5] = tested on: A549-ACE2 infected with SARS-CoV-2; test: cell count relative to DMSO; higher = less toxic; settings: 24 h
[6] = tested on: A549-ACE2; test: phospholipidosis EC50; higher = less potent phospholipidosis inducer
[7] = tested on: Caco-2; test: cell viability relative to DMSO; higher = less toxic; settings: 72 h
[8] = tested on: U2OS; test: as above; settings: 72 h
[9] = tested on: Calu-3; test: as above; settings: 72 h
[10] = tested on: HepG2; test: as above; settings: 72 h
[11] = tested on: Vero E6; test: as above; settings: 72 h
[12] = tested on: A549-ACE2 infected with SARS-CoV-2; test: morphology score (similarity to uninfected cells); higher = more like uninfected cells; settings: 24 h
[13] = tested on: A549-ACE2 infected with SARS-CoV-2; test: SARS-CoV-2 infection rate relative to DMSO; higher = more infection; settings: 24 h
[14] = tested on: Caco-2; test: drug sensitivity score (DSS) for viability; higher = more toxic; extreme values may be limits of the assay; settings: 72 h
[15] = tested on: U2OS; test: as above; settings: 72 h
[16] = tested on: Calu-3; test: as above; settings: 72 h
[17] = tested on: HepG2; test: as above; settings: 72 h
[18] = tested on: Vero E6; test: as above; settings: 72 h
[19] = tested on: Caco-2; test: relative viability EC50 (midpoint between 100% and the lowest measured viability); higher = less toxic; settings: 72 h
[20] = tested on: U2OS; test: as above; settings: 72 h

CCN(CC)CC1CCN(c2ncc3ncnc(Nc4ccc(F)c(Cl)c4)c3n2)CC1 [BIBU-1361]
Settings	drug sensitivity score	relative viability EC50 [µM]
[1]	–	1.02
[2]	–	1.89
[3]	–	0.573
[14]	5.9	–
[15]	2.7	–
[16]	10.1	–
[17]	4.9	–
[18]	7.8	–

drug-induced phospholipidosis [%], [4]
Settings	0.3 µM	0.833333 µM	3.33333 µM	6.66667 µM	10 µM	30 µM
24 h	2.83	15.5	75.3	121	120	99.8
48 h	4.06	11.5	65.6	111	126	–
72 h	4.98	9.71	51.2	111	123	–

Settings	SARS-CoV-2 infection rate [%]	cell count [%]	cell viability [%]	morphology score	phospholipidosis EC50 [µM]
[5], 0.3 µM	–	105	–	–	–
[5], 3 µM	–	117	–	–	–
[5], 10 µM	–	122	–	–	–
[5], 30 µM	–	72	–	–	–
[6], 24 h	–	–	–	–	3.2
[6], 48 h	–	–	–	–	3.88
[6], 72 h	–	–	–	–	3.9
[7], 1 nM	–	–	98	–	–
[7], 10 nM	–	–	85.1	–	–
[7], 100 nM	–	–	103	–	–
[7], 1000 nM	–	–	74.1	–	–
[7], 10000 nM	–	–	50.3	–	–
[8], 1 nM	–	–	100	–	–
[8], 10 nM	–	–	104	–	–
[8], 100 nM	–	–	101	–	–
[8], 1000 nM	–	–	96.6	–	–
[8], 10000 nM	–	–	57.3	–	–
[9], 1 nM	–	–	100	–	–
[9], 10 nM	–	–	100	–	–
[9], 100 nM	–	–	90.7	–	–
[9], 1000 nM	–	–	56.7	–	–
[9], 10000 nM	–	–	8.7	–	–
[10], 1 nM	–	–	100	–	–
[10], 10 nM	–	–	100	–	–
[10], 100 nM	–	–	106	–	–
[10], 1000 nM	–	–	90	–	–
[10], 10000 nM	–	–	40.4	–	–
[11], 1 nM	–	–	97.3	–	–
[11], 10 nM	–	–	96.4	–	–
[11], 100 nM	–	–	93.1	–	–
[11], 1000 nM	–	–	63.2	–	–
[11], 10000 nM	–	–	42.9	–	–
[12], 0.3 µM	–	–	–	0.01	–
[12], 3 µM	–	–	–	0.87	–
[12], 10 µM	–	–	–	0.28	–
[12], 30 µM	–	–	–	-0.37	–
[13], 0.3 µM	98	–	–	–	–
[13], 3 µM	26	–	–	–	–
[13], 10 µM	27	–	–	–	–
[13], 30 µM	90	–	–	–	–

Cc1ccc(C(=O)Nc2cccc(C(F)(F)F)c2)cc1Nc1nc(-c2cccnc2)nc2c1cnn2C [NVP-BHG712]
Settings	drug sensitivity score	relative viability EC50 [µM]
[1]	–	> 10
[2]	–	0.264
[3]	–	> 10
[14]	0	–
[15]	0	–
[16]	0	–
[17]	9.9	–
[18]	0	–
[19]	–	> 10
[20]	–	> 10

drug-induced phospholipidosis [%], [4]
Settings	0.3 µM	0.833333 µM	3.33333 µM	6.66667 µM	10 µM	30 µM
24 h	3.95	19.7	113	126	120	138
48 h	7.5	21.5	139	176	183	–
72 h	7.15	18.8	137	208	244	–

Settings	SARS-CoV-2 infection rate [%]	cell count [%]	cell viability [%]	morphology score	phospholipidosis EC50 [µM]
[5], 0.3 µM	–	98	–	–	–
[5], 3 µM	–	111	–	–	–
[5], 10 µM	–	69	–	–	–
[5], 30 µM	–	93	–	–	–
[6], 24 h	–	–	–	–	1.65
[6], 48 h	–	–	–	–	2.21
[6], 72 h	–	–	–	–	3.75
[7], 1 nM	–	–	93.9	–	–
[7], 10 nM	–	–	93.5	–	–
[7], 100 nM	–	–	101	–	–
[7], 1000 nM	–	–	96.6	–	–
[7], 10000 nM	–	–	107	–	–
[8], 1 nM	–	–	95.7	–	–
[8], 10 nM	–	–	94.3	–	–
[8], 100 nM	–	–	109	–	–
[8], 1000 nM	–	–	95.5	–	–
[8], 10000 nM	–	–	105	–	–
[9], 1 nM	–	–	100	–	–
[9], 10 nM	–	–	95.2	–	–
[9], 100 nM	–	–	96.3	–	–
[9], 1000 nM	–	–	108	–	–
[9], 10000 nM	–	–	102	–	–
[10], 1 nM	–	–	117	–	–
[10], 10 nM	–	–	104	–	–
[10], 100 nM	–	–	96.5	–	–
[10], 1000 nM	–	–	48.6	–	–
[10], 10000 nM	–	–	74.1	–	–
[11], 1 nM	–	–	96.5	–	–
[11], 10 nM	–	–	102	–	–
[11], 100 nM	–	–	98.1	–	–
[11], 1000 nM	–	–	109	–	–
[11], 10000 nM	–	–	108	–	–
[12], 0.3 µM	–	–	–	-0.1	–
[12], 3 µM	–	–	–	0.35	–
[12], 10 µM	–	–	–	0.14	–
[12], 30 µM	–	–	–	0.25	–
[13], 0.3 µM	99	–	–	–	–
[13], 3 µM	68	–	–	–	–
[13], 10 µM	41	–	–	–	–
[13], 30 µM	84	–	–	–	–

Source: the supplement of paper PMC13380429
